Source: the OPERA property sets (Mansouri et al. 2018)
≈ marks a conversion by molar mass, not a printed value.

Details: 25 °C

Going from `CCC(C)(C)c1ccc(O)cc1` to `CCC(C)(C)c1ccccc1`, the solubility falls from 1.02 mM (≈ 168 µg/mL) to 0.0708 mM (≈ 10.5 µg/mL) (14-fold).

First: N#CNC(=N)N
Second: CCC(N)C(=O)O (centres undefined)
The solubility of the first is 4.2-fold lower: 491 mM (≈ 41300 µg/mL) for the first, 2050 mM (≈ 211000 µg/mL) for the second.

Compared with `O=C(O)CCI`, `O=C(O)CCCCCCC(=O)O` is 5.5-fold lower in solubility: 372 mM (≈ 74300 µg/mL) for the first, 67.9 mM (≈ 11800 µg/mL) for the second.

First: CC1CCC(C(C)C)C(O)C1 (centres undefined)
Second: CC1CCC(C)(C)C1 (centres undefined)
The solubility of the first is 88-fold higher: 2.91 mM (≈ 455 µg/mL) for the first, 0.0332 mM (≈ 3.73 µg/mL) for the second.

First: CC(C)(C)CO
Second: CC(C)CC(C)(C)C
The solubility of the first is 20000-fold higher: 397 mM (≈ 35000 µg/mL) for the first, 0.0196 mM (≈ 2.24 µg/mL) for the second.

`CCCC(C(=O)O)C(=O)O` and `CCC(C(=O)O)C(=O)O` are within 1.5-fold of each other in solubility: 4790 mM (≈ 700000 µg/mL) for the first, 5390 mM (≈ 712000 µg/mL) for the second.

First: CC(=O)Oc1ccccc1C(=O)O
Second: O=C(O)c1cccc(O)c1
The solubility of the first is 2.1-fold lower: 25.5 mM (≈ 4600 µg/mL) for the first, 52.5 mM (≈ 7250 µg/mL) for the second.

Going from `C1=CC=CCC=C1` to `C1=CCCCCC1`, the solubility falls from 6.73 mM (≈ 620 µg/mL) to 0.686 mM (≈ 66 µg/mL) (9.8-fold).

Going from `CN(C)C(=O)Nc1ccccc1` to `ONc1ccccc1`, the solubility rises from 24.5 mM (≈ 4030 µg/mL) to 259 mM (≈ 28300 µg/mL) (11-fold).

Compared with `CCCCCCCI`, `CCCCCCCBr` is 2.4-fold higher in solubility: 0.0155 mM (≈ 3.5 µg/mL) for the first, 0.0371 mM (≈ 6.64 µg/mL) for the second.

Compared with `c1cc2cccc3c4cccc5cccc(c(c1)c23)c54`, `Oc1c2ccccc2cc2ccccc12` is 12000-fold higher in solubility: 1.59e-06 mM (≈ 0.0004 µg/mL) for the first, 0.0185 mM (≈ 3.59 µg/mL) for the second.

Compared with `CC(C)CCBr`, `C=CCC(C)C` is 2.3-fold lower in solubility: 1.3 mM (≈ 196 µg/mL) for the first, 0.57 mM (≈ 48 µg/mL) for the second.

First: O=C(Nc1ccccc1)c1ccccc1O
Second: c1ccc(Cc2ccccc2)cc1
The solubility of the first is 3.1-fold higher: 0.258 mM (≈ 55 µg/mL) for the first, 0.0838 mM (≈ 14.1 µg/mL) for the second.

Compared with `Cc1cccc2sc3nncn3c12`, `Cc1ccc2cc3ccccc3cc2c1` is 76000-fold lower in solubility: 8.45 mM (≈ 1600 µg/mL) for the first, 0.000111 mM (≈ 0.0213 µg/mL) for the second.

Compared with `Nc1ccc(-c2ccc(N)cc2)cc1`, `Clc1ccc(-c2c(Cl)cc(Cl)cc2Cl)cc1` is 5600-fold lower in solubility: 1.75 mM (≈ 322 µg/mL) for the first, 0.000312 mM (≈ 0.0911 µg/mL) for the second.

First: Oc1c(Cl)cc(Cl)c(Cl)c1Cc1c(O)c(Cl)cc(Cl)c1Cl
Second: Clc1ccccc1-c1c(Cl)cc(Cl)c(Cl)c1Cl
The solubility of the first is 9300-fold higher: 0.344 mM (≈ 140 µg/mL) for the first, 3.68e-05 mM (≈ 0.012 µg/mL) for the second.

Going from `O=S(=O)(Cl)c1ccc(I)cc1` to `O=C(O)COc1ccc(Cl)cc1`, the solubility rises from 0.0539 mM (≈ 16.3 µg/mL) to 5.13 mM (≈ 957 µg/mL) (95-fold).

`O=C(O)COc1ccc(Cl)cc1Cl` and `O=C(O)COc1ccc(Cl)c(Cl)c1` are within 1.5-fold of each other in solubility: 3.06 mM (≈ 677 µg/mL) for the first, 2.07 mM (≈ 457 µg/mL) for the second.

Going from `CCC(CC)CO` to `CCC[C@@H](O)CC`, the solubility rises from 39.1 mM (≈ 4000 µg/mL) to 158 mM (≈ 16100 µg/mL) (4-fold).

First: CN(C)CC/C=C1\c2ccccc2COc2ccccc21
Second: c1ccc2cc3cc4ccccc4cc3cc2c1
The solubility of the first is 17000-fold higher: 0.113 mM (≈ 31.6 µg/mL) for the first, 6.61e-06 mM (≈ 0.00151 µg/mL) for the second.

Going from `Clc1cc(-c2ccccc2)c(Cl)c(Cl)c1Cl` to `Clc1c(Cl)c(Cl)c(-c2ccccc2)c(Cl)c1Cl`, the solubility falls from 4.8e-05 mM (≈ 0.014 µg/mL) to 1.23e-05 mM (≈ 0.00401 µg/mL) (3.9-fold).

Compared with `CCCCCBr`, `C=CCCCCCC` is 23-fold lower in solubility: 0.841 mM (≈ 127 µg/mL) for the first, 0.0365 mM (≈ 4.1 µg/mL) for the second.

Compared with `CCCC(C)CC` (centres undefined), `CC[C@H](O)C(C)C` is 4000-fold higher in solubility: 0.0494 mM (≈ 4.95 µg/mL) for the first, 197 mM (≈ 20100 µg/mL) for the second.

Going from `CC(C)(N)C(=O)O` to `O=C(O)c1cccc(F)c1`, the solubility falls from 1760 mM (≈ 181000 µg/mL) to 10.7 mM (≈ 1500 µg/mL) (160-fold).

Going from `Clc1cc(Cl)c(Cl)c(Cl)c1` to `Clc1cccc(Cl)c1-c1c(Cl)cccc1Cl`, the solubility falls from 0.0236 mM (≈ 5.1 µg/mL) to 4.08e-05 mM (≈ 0.0119 µg/mL) (580-fold).

Going from `Cc1ccc(N=C=S)cc1` to `COc1ccc(C=O)cc1`, the solubility rises from 0.019 mM (≈ 2.83 µg/mL) to 31.5 mM (≈ 4290 µg/mL) (1700-fold).

Compared with `COc1ccc(C(O)(c2cncnc2)C2CC2)cc1` (centres undefined), `COc1ccc2c(c1)c(CC(=O)O)c(C)n2C(=O)/C=C/c1ccccc1` is 890-fold lower in solubility: 2.54 mM (≈ 650 µg/mL) for the first, 0.00286 mM (≈ 1 µg/mL) for the second.

Going from `CCCN(CCC)C(=O)SCC` to `CCCCCCCCCc1ccc(O)cc1`, the solubility falls from 1.98 mM (≈ 375 µg/mL) to 0.0318 mM (≈ 7 µg/mL) (62-fold).

Compared with `C=C[C@H]1CN2CCC1C[C@@H]2[C@@H](O)c1ccnc2ccccc12` (some centres undefined), `C(=C\c1ccccc1)/CN1CCN(C(c2ccccc2)c2ccccc2)CC1` is 2.7-fold higher in solubility: 0.744 mM (≈ 219 µg/mL) for the first, 2.04 mM (≈ 750 µg/mL) for the second.

Going from `Cc1c[nH]c(=S)[nH]c1=O` to `CCC1(C2=CCCCC2)C(=O)NC(=O)NC1=O`, the solubility rises from 3.58 mM (≈ 509 µg/mL) to 6.77 mM (≈ 1600 µg/mL) (1.9-fold).

Compared with `O=C(O)c1cc(Cl)ccc1[N+](=O)[O-]`, `O=[N+]([O-])c1cc(C2CCCCC2)c(O)c([N+](=O)[O-])c1` is 850-fold lower in solubility: 48 mM (≈ 9670 µg/mL) for the first, 0.0563 mM (≈ 15 µg/mL) for the second.

First: CCn1cc(C(=O)O)c(=O)c2cnc(N3CCNCC3)nc21
Second: COc1ccc2c(c1OC)C(=O)O[C@@H]2[C@H]1c2c(cc3c(c2OC)OCO3)CCN1C
The solubility of the first is 2.4-fold higher: 1.06 mM (≈ 322 µg/mL) for the first, 0.449 mM (≈ 186 µg/mL) for the second.

First: C1CCCNCC1
Second: CC(=O)[C@@]1(C)CC[C@H]2[C@@H]3C=C(C)C4=CC(=O)CC[C@]4(C)[C@H]3CC[C@@]21C
The solubility of the first is far higher: 1710 mM (≈ 170000 µg/mL) for the first, 0.00534 mM (≈ 1.82 µg/mL) for the second.

First: FC1(F)C(F)(F)C(F)(F)C1(F)F
Second: CCOP(=S)(OCC)O/N=C(\C#N)c1ccccc1
The solubility of the first is 9.2-fold higher: 0.165 mM (≈ 33 µg/mL) for the first, 0.0179 mM (≈ 5.35 µg/mL) for the second.

`O=C=O` and `Cc1cc(C)cc(O)c1` are within 1.5-fold of each other in solubility: 33.5 mM (≈ 1470 µg/mL) for the first, 39.9 mM (≈ 4880 µg/mL) for the second.

Same assay, conditions: 30 °C

First: CN=C(O)Oc1cccc(C)c1
Second: COc1ccccc1C(=O)O
The solubility of the first is 2.1-fold lower: 15.7 mM (≈ 2600 µg/mL) for the first, 32.9 mM (≈ 5000 µg/mL) for the second.

First: CN(C)CCN(Cc1cccs1)c1ccccn1
Second: CCOC(=O)C1(c2ccccc2)CCN(C)CC1
The solubility of the first is 5.7-fold lower: 2.3 mM (≈ 601 µg/mL) for the first, 13 mM (≈ 3220 µg/mL) for the second.

First: CCCCC(=O)CCCC
Second: CCCCCCCCCCC(=O)O
The solubility of the first is 9.1-fold higher: 2.55 mM (≈ 363 µg/mL) for the first, 0.28 mM (≈ 52.2 µg/mL) for the second.

First: COC(=O)[C@H]1[C@H]2C[C@@H]3c4[nH]c5cc(OC)ccc5c4CCN3C[C@H]2C[C@@H](OC(=O)c2cc(OC)c(OC)c(OC)c2)[C@@H]1OC
Second: CC(C)CCC[C@@H](C)[C@H]1CC[C@H]2[C@@H]3CC=C4C[C@@H](O)CC[C@]4(C)[C@H]3CC[C@]12C
The solubility of the first is 490-fold higher: 0.12 mM (≈ 73 µg/mL) for the first, 0.000246 mM (≈ 0.095 µg/mL) for the second.

`COc1ccc([N+](=O)[O-])cc1` showed a solubility of 3.85 mM (≈ 590 µg/mL).
